In patent publication US10646494B2, “Heterocycle-substituted tetracyclic compounds and methods of use thereof for the treatment of viral diseases” (Merck Sharp & Dohme Corp., priority 2016, dated 2020):
Where two headings read alike, the source gives them in different places.

Legend:
Parameters in all cases: species or system Hepatitis C virus (HCV)
[1] = test system: HCV replicon 2B; experiment: Cell-based HCV replicon assay (Replicon Assay A), replicon 2B; details: read-out: Replicon EC50 (nM) 2B, replicon 2B, replicon RNA by real time PCR, cells harvested on day 3
Method: (§1) To measure cell-based anti-HCV activity of compounds of the present invention, two complimentary assays were employed using various replicons. In the first assay (“Replicon Assay A”), replicon cells were seeded at 2000 cells/well in 384-well 384-well flat bottom tissue culture treated clear bottom plate (Corning 3707) in the presence of the test compound. Various concentrations of test compound, typically in 10 serial dilutions, were added to the assay mixture, with the starting concentration ranging from 333.3 nM to […]. The final concentration of DMSO was 0.5%. Fetal bovine serum was 5%, in the assay media. Cells were harvested on day 3 by removing media and washing the cells with a suitable wash buffer. The cells are lysed with the addition of 1× Qiagen lysis buffer (Cat #1062731). The replicon RNA level was measured using real time PCR (TaqMan® EZ RT-PCR, Applied Biosystems 403028) with the following primers and probes: […]
(§2) Cyclophilin RNA was used as endogenous control and was amplified in the same reaction as NS5B (multiplex PCR). The real-time RT-PCR reactions were run on ABI PRISM 7900HT Sequence Detection System using the following program: 50° C. for 2 minutes, 60° C. for 30 minutes, 95° C. for 5 minutes, 40 cycles of 94° C. for 20 sec, 55° C. for 1 minutes.
(§3) The amount of HCV replicon RNA per cell is quantified using a linear regression curve for a known nanogram (ng) amount of HCV replicon total RNA. This is established by plotting the Cycle Threshold values (Ct) from the Neo probe and primer set versus the log (ng) for each HCV replicon total RNA standard. The amount of HCV RNA for each replicon sample is calculated by taking the sample's Ct value, minus the line intercept, divided by the slope of the line. Similarly, the amount of Cyclophilin mRNA per cell is also quantified using a linear regression curve for a known nanogram (ng) amount of HCV replicon total RNA. Again, this is established by plotting the Cycle Threshold values (Ct) from the Cyclophilin probe and primer set versus the log (ng) for each HCV replicon total RNA standard.
(§4) Data was obtained for various compounds of the present invention using the methods described in the Example above, and is presented in the table immediately below. Data for replicons 1A, 1AY93H and 2B were obtained using Replicon Assay A and data for replicons 1B were obtained using Replicon Assay B.

[2] = test system: HCV replicon 1A Y93H; experiment: Cell-based HCV replicon assay (Replicon Assay A), replicon 1AY93H; details: read-out: Replicon EC50 (nM) 1A Y93H, replicon 1A Y93H, replicon RNA by real time PCR, cells harvested on day 3
Method: as §1, §2, §3, §4

[3] = test system: HCV replicon 1A; experiment: Cell-based HCV replicon assay (Replicon Assay A), replicon 1A; details: replicon RNA by real time PCR, cells harvested on day 3
Method: as §1, §2, §3, §4

Row | Structure (SMILES) | EC50 ([1]; Hepatitis C virus, 72 h) [nM] | EC50 ([2]; Hepatitis C virus, 72 h) [nM] | EC50 ([3]; Hepatitis C virus, 72 h) [nM] | EC50 [3] [nM] | EC50 [1] [nM] | EC50 [2] [nM]
1 | CCc1cc(C2Oc3cc(-c4cnc([C@@H]5CCCN5C(=O)[C@@H](NC(=O)OC)C(C)C)[nH]4)cc(F)c3-c3cc4cc(-c5cnc([C@@H]6CCCN6C(=O)[C@@H](NC(=O)OC)C(C)C)[nH]5)ccc4n32)on1 (mixture of isomers) [Compound 5] | 4.17 | 0.708 | – | – | – | –
2 | COC(=O)N[C@H](C(=O)N1CCC[C@H]1c1ncc(-c2cc(F)c3c(c2)OC(c2nc4ccccc4n2C)n2c-3cc3cc(-c4cnc([C@@H]5CCCN5C(=O)[C@@H](NC(=O)OC)C(C)C)[nH]4)ccc32)[nH]1)C(C)C (mixture of isomers) [Compound 11] | 8.23 | 21.6 | 0.0081 | – | – | –
3 | COC(=O)N[C@H](C(=O)N1CCC[C@H]1c1ncc(-c2cc(F)c3c(c2)OC(c2cc4ccccn4n2)n2c-3cc3cc(-c4cnc([C@@H]5CCCN5C(=O)[C@@H](NC(=O)OC)C(C)C)[nH]4)ccc32)[nH]1)C(C)C (mixture of isomers) [Compound 12] | 33.3 | – | 0.0202 | – | – | –
4 | COC(=O)N[C@H](C(=O)N1CCC[C@H]1c1ncc(-c2ccc3c(c2)OC(c2nnc(-c4ccccc4)o2)n2c-3cc3cc(-c4cnc([C@@H]5CCCN5C(=O)[C@@H](NC(=O)OC)C5CCOCC5)[nH]4)ccc32)[nH]1)C1CCOCC1 (mixture of isomers) [Compound 38] | – | 0.737 | 0.223 | – | – | –
5 | CCc1cc([C@@H]2Oc3cc(-c4cnc([C@@H]5CCCN5C(=O)[C@@H](NC(=O)OC)C(C)C)[nH]4)cc(F)c3-c3cc4cc(-c5cnc([C@@H]6CCCN6C(=O)[C@@H](NC(=O)OC)C(C)C)[nH]5)ccc4n32)on1 (single isomer, unassigned) [Compound 7] | – | – | – | 0.0073 | 10.5 | 49.7
6 | CCc1cc([C@@H]2Oc3cc(-c4cnc([C@@H]5CCCN5C(=O)[C@@H](NC(=O)OC)C(C)C)[nH]4)cc(F)c3-c3cc4cc(-c5cnc([C@@H]6CCCN6C(=O)[C@@H](NC(=O)OC)C(C)C)[nH]5)ccc4n32)on1 (single isomer, unassigned) [Compound 8] | – | – | 0.004 | – | 1.23 | 0.603
7 | COC(=O)N[C@H](C(=O)N1CCC[C@H]1c1ncc(-c2cc(F)c3c(c2)O[C@@H](c2cc(C(C)C)no2)n2c-3cc3cc(-c4cnc([C@@H]5CCCN5C(=O)[C@@H](NC(=O)OC)C(C)C)[nH]4)ccc32)[nH]1)C(C)C (single isomer, unassigned) [Compound 9] | – | – | 0.0036 | – | 0.27 | 0.05
8 | COC(=O)N[C@H](C(=O)N1CCC[C@H]1c1ncc(-c2cc(F)c3c(c2)O[C@@H](c2cc(C(C)C)no2)n2c-3cc3cc(-c4cnc([C@@H]5CCCN5C(=O)[C@@H](NC(=O)OC)C(C)C)[nH]4)ccc32)[nH]1)C(C)C (single isomer, unassigned) [Compound 10] | – | – | – | 0.0027 | 1.05 | 1.43
9 | COC(=O)N[C@H](C(=O)N1CCC[C@@H]1c1ncc(-c2ccc3c(c2)cc2n3C(c3nnc(C)s3)Oc3cc(-c4cnc([C@H]5CCCN5C(=O)[C@H](NC(=O)OC)C(C)C)[nH]4)cc(F)c3-2)[nH]1)C(C)C (single isomer, unassigned) [Compound 15] | 3.06 | – | – | – | – | –
10 | COC(=O)N[C@H](C(=O)N1CCC[C@@H]1c1ncc(-c2ccc3c(c2)cc2n3C(c3nnc(C)s3)Oc3cc(-c4cnc([C@H]5CCCN5C(=O)[C@H](NC(=O)OC)C(C)C)[nH]4)cc(F)c3-2)[nH]1)C(C)C (single isomer, unassigned) [Compound 16] | – | – | – | – | 1.75 | –
11 | COC(=O)N[C@H](C(=O)N1CCC[C@@H]1c1ncc(-c2ccc3c(c2)cc2n3C(c3cnco3)Oc3cc(-c4cnc([C@H]5CCCN5C(=O)[C@H](NC(=O)OC)C(C)C)[nH]4)cc(F)c3-2)[nH]1)C(C)C (single isomer, unassigned) [Compound 17] | 3.96 | – | – | 0.0327 | – | 0.716
12 | COC(=O)N[C@H](C(=O)N1CCC[C@@H]1c1ncc(-c2ccc3c(c2)cc2n3C(c3cnco3)Oc3cc(-c4cnc([C@H]5CCCN5C(=O)[C@H](NC(=O)OC)C(C)C)[nH]4)cc(F)c3-2)[nH]1)C(C)C (single isomer, unassigned) [Compound 18] | – | – | – | 0.0023 | 3.54 | 18.4
13 | COC(=O)N[C@H](C(=O)N1CCC[C@H]1c1ncc(-c2cc(F)c3c(c2)OC(c2nc4ccccc4o2)n2c-3cc3cc(-c4cnc([C@@H]5CCCN5C(=O)[C@@H](NC(=O)OC)C(C)C)[nH]4)ccc32)[nH]1)C(C)C (single isomer, unassigned) [Compound 19] | – | – | 0.0016 | – | 2.67 | 4.36
14 | COC(=O)N[C@H](C(=O)N1CCC[C@H]1c1ncc(-c2cc(F)c3c(c2)OC(c2cnns2)n2c-3cc3cc(-c4cnc([C@@H]5CCCN5C(=O)[C@@H](NC(=O)OC)C(C)C)[nH]4)ccc32)[nH]1)C(C)C (single isomer, unassigned) [Compound 21] | – | – | – | – | 0.98 | 1.39
15 | COC(=O)N[C@H](C(=O)N1CCC[C@H]1c1ncc(-c2cc(F)c3c(c2)OC(c2nc(C)co2)n2c-3cc3cc(-c4cnc([C@@H]5CCCN5C(=O)[C@@H](NC(=O)OC)C(C)C)[nH]4)ccc32)[nH]1)C(C)C (single isomer, unassigned) [Compound 23] | – | – | 0.0031 | – | 6.16 | 12.7
16 | COC(=O)N[C@H](C(=O)N1CCC[C@H]1c1ncc(-c2cc(F)c3c(c2)OC(c2nc(C)co2)n2c-3cc3cc(-c4cnc([C@@H]5CCCN5C(=O)[C@@H](NC(=O)OC)C(C)C)[nH]4)ccc32)[nH]1)C(C)C (single isomer, unassigned) [Compound 24] | – | – | – | 0.0021 | 2.62 | 0.266
17 | COC(=O)N[C@H](C(=O)N1CCC[C@H]1c1ncc(-c2cc(F)c3c(c2)OC(c2cc(C(C)C)no2)n2c-3cc3cc(-c4cnc([C@@H]5CCCN5C(=O)[C@@H](NC(=O)OC)C(C)C)[nH]4)ccc32)[nH]1)C(C)C (single isomer, unassigned) [Compound 26] | – | – | – | – | 0.8 | 0.816
18 | CCc1cnc(C2Oc3cc(-c4cnc([C@@H]5CCCN5C(=O)[C@@H](NC(=O)OC)C(C)C)[nH]4)cc(F)c3-c3cc4cc(-c5cnc([C@@H]6CCCN6C(=O)[C@@H](NC(=O)OC)C(C)C)[nH]5)ccc4n32)o1 (single isomer, unassigned) [Compound 27] | – | – | 0.0027 | – | 5.5 | –
19 | CCc1cnc(C2Oc3cc(-c4cnc([C@@H]5CCCN5C(=O)[C@@H](NC(=O)OC)C(C)C)[nH]4)cc(F)c3-c3cc4cc(-c5cnc([C@@H]6CCCN6C(=O)[C@@H](NC(=O)OC)C(C)C)[nH]5)ccc4n32)o1 (single isomer, unassigned) [Compound 28] | – | 0.31 | – | 0.0021 | 2.09 | –
20 | COC(=O)N[C@H](C(=O)N1CCC[C@H]1c1ncc(-c2cc(F)c3c(c2)OC(c2cc(C4CC4)no2)n2c-3cc3cc(-c4cnc([C@@H]5CCCN5C(=O)[C@@H](NC(=O)OC)C(C)C)[nH]4)ccc32)[nH]1)C(C)C (single isomer, unassigned) [Compound 29] | – | – | – | – | 0.46 | 3.25
21 | CCc1nnc(C2Oc3cc(-c4cnc([C@@H]5CCCN5C(=O)[C@@H](NC(=O)OC)C(C)C)[nH]4)cc(F)c3-c3cc4cc(-c5cnc([C@@H]6CCCN6C(=O)C(NC(=O)OC)C(C)C)[nH]5)ccc4n32)s1 (single isomer, unassigned) [Compound 34] | – | 0.793 | – | 0.0084 | – | –
22 | COC(=O)N[C@H](C(=O)N1CCC[C@H]1c1ncc(-c2cc(F)c3c(c2)OC(c2cnc4n2CCC4)n2c-3cc3cc(-c4cnc([C@@H]5CCCN5C(=O)[C@@H](NC(=O)OC)C(C)C)[nH]4)ccc32)[nH]1)C(C)C (some centres unmarked) [Compound 13] | – | – | 0.147 | – | – | –
23 | COC(=O)N[C@H](C(=O)N1CCC[C@H]1c1ncc(-c2ccc3c(c2)OC(c2ccc(C)o2)n2c-3cc3cc(-c4cnc([C@@H]5C[C@@H](F)CN5C(=O)[C@@H](NC(=O)OC)C5CCOCC5)[nH]4)ccc32)[nH]1)C(C)C (some centres unmarked) [Compound 44] | – | 0.434 | 0.0679 | – | – | –
24 | COC(=O)N[C@H](C(=O)N1CCC[C@H]1c1ncc(-c2ccc3c(c2)OC(c2ccc(C)o2)n2c-3cc3cc(-c4cnc([C@@H]5C[C@H]6C[C@H]6N5C(=O)[C@@H](NC(=O)OC)C(C)C)[nH]4)ccc32)[nH]1)C(C)C (some centres unmarked) [Compound 45] | – | 4.22 | 0.0484 | – | – | –
